Experimental findings from PubChem BioAssay AID330 (DTP/NCI, 2004) are described below.

Values joined by “and” are separate entries in the source; they are usually repeats but may differ in a detail not shown here. Equal values may be shown once. Inconclusive results and toxic doses are left out.

This assay relates to P388 leukemia ip, CD2F1 mice, survival T/C. Nature of the assay: NCI In Vivo Anticancer Drug Screen. Data for tumor model P388 Leukemia (intraperitoneal) in CD2F1 (CDF1) mice. The note with it: endpoint: median survival time, higher = longer survival. In outline:
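Mice carrying the transplanted tumor received test compound or vehicle. Survival was recorded in each group, and the value is the treated-group measurement divided by that of the vehicle-treated control group.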

The mark [1] stands for this setting: dose: 100.0 mg/kg/injection, schedule: Q04DX003 (ip), vehicle: Klucel (hydroxypropylcellulose) (HPC).
Where [2] appears, read: dose: 200.0 mg/kg/injection, schedule: Q04DX003 (ip), vehicle: Klucel (hydroxypropylcellulose) (HPC).
[3] abbreviates: dose: 400.0 mg/kg/injection, schedule: Q04DX003 (ip), vehicle: Klucel (hydroxypropylcellulose) (HPC).
Setting [4] is: dose: 25.0 mg/kg/injection, schedule: Q01DX009 (ip), vehicle: Klucel (hydroxypropylcellulose) (HPC).
The mark [5] stands for this setting: dose: 50.0 mg/kg/injection, schedule: Q01DX009 (ip), vehicle: Klucel (hydroxypropylcellulose) (HPC).
[6] abbreviates: dose: 100.0 mg/kg/injection, schedule: Q01DX009 (ip), vehicle: Klucel (hydroxypropylcellulose) (HPC).
Setting [7] is: dose: 25.0 mg/kg/injection, schedule: Q01DX009 (ip), vehicle: saline with Tween-80.
The mark [8] stands for this setting: dose: 50.0 mg/kg/injection, schedule: Q01DX009 (ip), vehicle: saline with Tween-80.
Setting [9] is: dose: 100.0 mg/kg/injection, schedule: Q01DX009 (ip), vehicle: saline with Tween-80.
Setting [10] is: dose: 200.0 mg/kg/injection, schedule: Q01DX009 (ip), vehicle: saline with Tween-80.
[11] abbreviates: dose: 50.0 mg/kg/injection, schedule: Q01DX005 (ip), vehicle: Klucel (hydroxypropylcellulose) (HPC).
[12] abbreviates: dose: 100.0 mg/kg/injection, schedule: Q01DX005 (ip), vehicle: Klucel (hydroxypropylcellulose) (HPC).
The mark [13] stands for this setting: dose: 200.0 mg/kg/injection, schedule: Q01DX005 (ip), vehicle: Klucel (hydroxypropylcellulose) (HPC).
Where [14] appears, read: dose: 60.0 mg/kg/injection, schedule: Q01DX005 (ip), vehicle: Klucel (hydroxypropylcellulose) (HPC).
The mark [15] stands for this setting: dose: 120.0 mg/kg/injection, schedule: Q01DX005 (ip), vehicle: Klucel (hydroxypropylcellulose) (HPC).
Where [16] appears, read: dose: 50.0 mg/kg/injection, schedule: Q04DX003 (ip), vehicle: saline with Tween-80.
Setting [17] is: dose: 100.0 mg/kg/injection, schedule: Q04DX003 (ip), vehicle: saline with Tween-80.
Where [18] appears, read: dose: 200.0 mg/kg/injection, schedule: Q04DX003 (ip), vehicle: saline with Tween-80.
The mark [19] stands for this setting: dose: 400.0 mg/kg/injection, schedule: Q04DX003 (ip), vehicle: saline with Tween-80.
[20] abbreviates: dose: 240.0 mg/kg/injection, schedule: Q01DX005 (ip), vehicle: Klucel (hydroxypropylcellulose) (HPC).

As for `CCCCOc1cc(C(=O)NCCN(C)C)c2ccccc2n1`, the T/C (dose: 7.5 mg/kg/injection, schedule: Q01DX005 (ip), vehicle: saline with Tween-80) is 104 % of control; the T/C (dose: 15.0 mg/kg/injection, schedule: Q01DX005 (ip), vehicle: saline with Tween-80) was 106 % of control; the T/C (dose: 30.0 mg/kg/injection, schedule: Q01DX005 (ip), vehicle: saline with Tween-80) is 106 % of control.
Take `C=C1C(=O)C23CC1CCC2C12COC(OC(=O)CCCCCCCCCCC)C1C(C)(C)C(O)CC2OC3=O` (configuration not stated): the T/C is 103 % of control (dose: 7.5 mg/kg/injection, schedule: Q01DX009 (ip), vehicle: saline with Tween-80); 95 % of control (dose: 15.0 mg/kg/injection, schedule: Q01DX009 (ip), vehicle: saline with Tween-80); 103 % of control (dose: 30.0 mg/kg/injection, schedule: Q01DX009 (ip), vehicle: saline with Tween-80); 103 % of control (dose: 60.0 mg/kg/injection, schedule: Q01DX009 (ip), vehicle: saline with Tween-80).
Consider `CN1CCC/C1=C\C(=O)c1ccc([N+](=O)[O-])cc1`, for which the T/C is 107 % of control under setting [1], 107 % of control under setting [2] and 93 % of control under setting [3].
`COC1=CC(=Nc2cc(Br)c(O)c(Br)c2)C=CC1=O`: the T/C (dose: 6.25 mg/kg/injection, schedule: Q01DX005 (ip), vehicle: saline) is 105 % of control; the T/C (dose: 12.5 mg/kg/injection, schedule: Q01DX005 (ip), vehicle: saline) is 108 % of control; the T/C (dose: 25.0 mg/kg/injection, schedule: Q01DX005 (ip), vehicle: saline) was 100 % of control; the T/C (dose: 50.0 mg/kg/injection, schedule: Q01DX005 (ip), vehicle: saline with Tween-80) was 95 % of control.
Take `Cn1c(=S)sc2ccc(S(=O)(=O)C(F)F)cc21`: the T/C reads like this: under setting [4], 103 % of control; under setting [5], 112 % of control; under setting [6], 107 % of control; (dose: 200.0 mg/kg/injection, schedule: Q01DX009 (ip), vehicle: Klucel (hydroxypropylcellulose) (HPC)) 108 % of control.
Turning to `O=C(N=C=S)c1ccc(Cl)c(Cl)c1`, the T/C was 94 % of control under setting [7], 95 % of control under setting [8], 95 % of control under setting [9] and 103 % of control under setting [10].
For the molecule `CNC(=O)N1CC2CCC(C)(C1)OC2(C)C` (configuration not stated), the T/C reads like this: under setting [11], 97 % of control; under setting [12], 100 % of control and 103 % of control; under setting [13], 103 % of control and 106 % of control.
Regarding `Cc1ccc(N2CCN(CC(O)COc3cc4c(c5c3CCCC5)CCCC4)CC2)cc1C` (configuration not stated), the T/C is, setting by setting: under setting [1], 95 % of control; under setting [2], 93 % of control; under setting [3], 91 % of control.
For the molecule `C/C(=N/N=C(N)N)c1cn[nH]c1C`, the T/C runs as follows: under setting [14], 107 % of control; under setting [15], 100 % of control.
On to `O=C(/C=C/c1ccccc1OCc1cc2ccccc2nc1Cl)c1ccccc1`, for which the T/C was 87 % of control (dose: 100.0 mg/kg/injection, schedule: Q01DX001 (ip), vehicle: saline with Tween-80); 90 % of control (dose: 200.0 mg/kg/injection, schedule: Q01DX001 (ip), vehicle: saline with Tween-80); 90 % of control (dose: 400.0 mg/kg/injection, schedule: Q01DX001 (ip), vehicle: saline with Tween-80).
For the molecule `O=Cc1c(-c2ccc(Cl)cc2)nc2n1CCS2`, the T/C (dose: 100.0 mg/kg/injection, schedule: Q04DX002 (ip), vehicle: Klucel (hydroxypropylcellulose) (HPC)) was 101 % of control and the T/C (dose: 400.0 mg/kg/injection, schedule: Q04DX002 (ip), vehicle: Klucel (hydroxypropylcellulose) (HPC)) was 104 % of control.
Regarding `CC(=O)Oc1ccccc1`, the T/C is, setting by setting: under setting [16], 103 % of control; under setting [17], 100 % of control.
On to `C/C(=N/NC(=O)c1ccccc1)c1ccc(Cl)cc1Cl`, for which, under “dose: 12.5 mg/kg/injection, schedule: Q01DX009 (ip), vehicle: Klucel (hydroxypropylcellulose) (HPC)”, the T/C is 90 % of control.
As to `CCC(c1ccc(Cl)cc1)C(C#N)c1ccccc1` (configuration not stated), the T/C under setting [17] was 100 % of control, the T/C under setting [18] was 97 % of control and the T/C under setting [19] is 100 % of control.
In the case of `c1ccc2c(c1)O[As](O[As]1Oc3ccccc3O1)O2`, the T/C is 106 % of control (dose: 2.5 mg/kg/injection, schedule: Q01DX009 (ip), vehicle: saline with Tween-80); 122 % of control (dose: 5.0 mg/kg/injection, schedule: Q01DX009 (ip), vehicle: saline with Tween-80); 161 % of control (dose: 20.0 mg/kg/injection, schedule: Q01DX009 (ip), vehicle: saline with Tween-80).
`O=c1ccnc(Sc2ncccc2[N+](=O)[O-])[nH]1`: the T/C runs as follows: under setting [17], 100 % of control; under setting [18], 100 % of control; under setting [19], 100 % of control.
For `O=Cc1ncccc1[N+](=O)[O-]`, the T/C is, setting by setting: (dose: 50.0 mg/kg/injection, schedule: Q01DX009 (ip), vehicle: saline + Tween-80 + alcohol) 116 % of control; (dose: 100.0 mg/kg/injection, schedule: Q01DX009 (ip), vehicle: saline + Tween-80 + alcohol) 115 % of control.
For the molecule `C/C=c1/[nH]c(=O)/c(=C\c2ccccc2)[nH]c1=O`, the T/C is, setting by setting: under setting [4], 89 % of control; under setting [5], 91 % of control; under setting [6], 89 % of control.
Consider `CCOc1c(N=Nc2ccc([N+](=O)[O-])cc2)c(C)nn1C(=S)SC`, for which the T/C (dose: 1.87 mg/kg/injection, schedule: Q01DX005 (ip), vehicle: Klucel (hydroxypropylcellulose) (HPC)) was 108 % of control; the T/C (dose: 3.75 mg/kg/injection, schedule: Q01DX005 (ip), vehicle: Klucel (hydroxypropylcellulose) (HPC)) was 105 % of control; the T/C (dose: 7.5 mg/kg/injection, schedule: Q01DX005 (ip), vehicle: Klucel (hydroxypropylcellulose) (HPC)) was 105 % of control and 89 % of control; the T/C (dose: 15.0 mg/kg/injection, schedule: Q01DX005 (ip), vehicle: Klucel (hydroxypropylcellulose) (HPC)) is 97 % of control; the T/C under setting [14] is 90 % of control; the T/C under setting [20] is 87 % of control.
On to `CC1(O)CCC(O)CC1CC[N+](C)(C)[O-]` (configuration not stated), for which the T/C is, setting by setting: (dose: 50.0 mg/kg/injection, schedule: Q01DX005 (ip), vehicle: saline) 102 % of control; (dose: 100.0 mg/kg/injection, schedule: Q01DX005 (ip), vehicle: saline) 99 % of control; (dose: 200.0 mg/kg/injection, schedule: Q01DX005 (ip), vehicle: saline) 102 % of control.
In the case of `CCCCCCN1CCN(Cc2ccc(N(CC)CC)cc2)C(=O)C1=O`, the T/C reads like this: under setting [11], 91 % of control; under setting [12], 100 % of control; under setting [13], 105 % of control.
On to `O=C1OC(O)c2cccc3cccc1c23` (configuration not stated), for which the T/C under setting [14] was 98 % of control, the T/C under setting [15] is 100 % of control and the T/C under setting [20] was 94 % of control.
For `Cc1cc(=O)c2c(ccc3ccccc32)[nH]1`, the T/C by setting is: under setting [9], 106 % of control; under setting [10], 109 % of control; (dose: 400.0 mg/kg/injection, schedule: Q01DX009 (ip), vehicle: saline with Tween-80) 104 % of control.
For the molecule `CN(C)CCN1CC2Cc3ccccc3C1c1ccccc12` (configuration not stated), the T/C was 102 % of control under setting [1] and 102 % of control under setting [2].
Turning to `CC(C)(O)C1C2OC(=O)C1C1(O)CC3OC34C(=O)OC2C14C` (configuration not stated), the T/C runs as follows: (dose: 12.5 mg/kg/injection, schedule: Q01DX009 (ip), vehicle: saline with Tween-80) 100 % of control; under setting [7], 100 % of control; (dose: 33.0 mg/kg/injection, schedule: Q04DX003 (ip), vehicle: saline with Tween-80) 104 % of control; under setting [8], 100 % of control; under setting [16], 109 % of control.
